Read-outs that look alike come from different tables or passages of the source.

The target of this experiment is T1, human PDE9A2 (Homo sapiens, UniProt O76083).
T1 construct: made in house; host or cells: Sf9 insect cells (infected; crude lysate used as enzyme source)
Kind of experiment: PDE9A2 enzymatic activity assay (scintillation proximity assay). The format is biochemical. The settings on record: for inhibition at 10 µM: read-out: % inhibition of PDE9A2. The method, then:
The PDE9A2 enzymatic activity assay was run as scintillation proximity assay (SPA), in general according to the protocol of the manufacturer (Amersham Biosciences, product number: TRKQ 7100).
As enzyme source, lysate (PBS with 1% Triton X-100 supplemented with protease inhibitors, cell debris removed by centrifugation at 13.000 rpm for 30 min) of SF 9 cell expressing the human PDE9A2 was used. The total protein amount included in the assay varied upon infection and production efficacy of the SF9 cells and lay in the range of 0.1-100 ng.
In general, the assay conditions were as follows: • total assay volume: 40 microliter • protein amount: 0.1-50 ng • substrate concentration (cGMP): 20 nanomolar; ˜1 mCi/l • incubation time: 60 min at room temperature • final DMSO concentration: 0.2-1%
The assays were run in 384-well format. The test reagents as well as the enzyme and the substrate were diluted in assay buffer. The assay buffer contained 50 mM Tris, 8.3 mM MgCl2, 1.7 mM EGTA, 0.1% BSA, 0.05% Tween 20; the pH of assay buffer was adjusted to 7.5. The reaction was stopped by applying a PDE9 specific inhibitor (e.g. compounds according to WO04099210 or WO04099211) in excess.
The activity of the positive control (minus the negative control=background) is set to 100% and activity in the presence of test compound is expressed relative to these 100%.
Background: Scintillation proximity formats need no separation of bound from free tracer.

Setting [1] is: specific IC50 value lies within the given range, read-out: IC50 within range [nanomolar (nM)].

T1 sequence (O76083 1-533 isoform O76083-2): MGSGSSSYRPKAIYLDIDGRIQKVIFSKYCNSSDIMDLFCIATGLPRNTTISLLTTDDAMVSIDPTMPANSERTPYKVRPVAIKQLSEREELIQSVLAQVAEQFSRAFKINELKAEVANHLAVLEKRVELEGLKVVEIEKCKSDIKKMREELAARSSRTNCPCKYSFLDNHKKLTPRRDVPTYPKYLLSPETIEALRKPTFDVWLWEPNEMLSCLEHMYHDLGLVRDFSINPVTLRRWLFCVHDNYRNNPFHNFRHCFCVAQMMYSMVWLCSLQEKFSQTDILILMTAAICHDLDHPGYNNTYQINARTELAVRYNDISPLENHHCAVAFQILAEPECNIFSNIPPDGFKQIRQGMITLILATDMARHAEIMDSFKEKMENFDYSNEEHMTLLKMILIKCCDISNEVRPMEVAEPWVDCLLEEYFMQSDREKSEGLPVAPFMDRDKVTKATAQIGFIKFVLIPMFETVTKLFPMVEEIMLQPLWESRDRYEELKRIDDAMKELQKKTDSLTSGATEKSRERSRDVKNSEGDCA

Regarding `O=C([C@@H]1CC[C@@H]1c1nc2c(cnn2C2CCC(F)(F)CC2)c(=O)[nH]1)N1CCCCC1` (racemic) [Example 34], for the setting “at 10 micromolar concentration”, the inhibition at 10 µM came to 57%. Also, under setting [1], the IC50 was in the range of 201 to 5000 nM. For `O=C([C@H]1CC[C@@H]1c1nc2c(cnn2C2CCCC2)c(=O)[nH]1)N1CCCCC1` (racemic) [Example 24], in that order: 101% and 1 to 200 nM. For `O=C([C@H]1CCCC[C@@H]1c1nc2c(cnn2C2CCC(F)(F)CC2)c(=O)[nH]1)N1CCOCC1` (racemic) [Example 20], the inhibition at 10 µM (at 10 micromolar concentration) came to 71%. Also, the IC50 under setting [1] fell in the range of 201 to 5000 nM. For `O=C([C@H]1CCC[C@@H]1c1nc2c(cnn2C2CCC(F)(F)CC2)c(=O)[nH]1)N1CCCCC1` (racemic) [Example 25], in that order: 95% and 201 to 5000 nM. For `CC1(C)CN(C(=O)[C@H]2CC[C@@H]2c2nc3c(cnn3C3CCC(F)(F)CC3)c(=O)[nH]2)CCO1` (racemic) [Example 16], in that order: 98% and 1 to 200 nM.

As for `Cc1ccccc1-n1ncc2c(=O)[nH]c(C3CC3)nc21` [Example 39], the IC50 under setting [1] was in the range of 201 to 5000 nM.

Turning to `O=C([C@H]1C[C@@H]1c1nc2c(cnn2C2CCC(F)(F)CC2)c(=O)[nH]1)N1CCCCC1` (racemic) [Example 23], the inhibition at 10 µM (at 10 micromolar concentration) turned out to be 92%. In addition, the half-maximal inhibitory concentration (IC50) under setting [1] was in the range of 201 to 5000 nM. For `Cc1ccncc1-n1ncc2c(=O)[nH]c([C@H]3C[C@@H]3C)nc21` (racemic) [Example 36], in that order: 90% and 1 to 200 nM. For `O=C([C@H]1CC[C@@H]1c1nc2c(cnn2C2CCC(F)(F)CC2)c(=O)[nH]1)N1CCOCC1` (racemic) [Example 1], in that order: 99% and 1 to 200 nM. For `O=C([C@H]1CC[C@@H]1c1nc2c(cnn2C2CCC(F)(F)CC2)c(=O)[nH]1)N1CC(F)(F)C(F)(F)C1` (racemic) [Example 4], in that order: 97% and 1 to 200 nM.

Regarding `Cc1ccccc1-n1ncc2c(=O)[nH]c(C3CCCC(O)C3)nc21` (mixture of isomers) [Example 40], the IC50 under setting [1] was in the range of 201 to 5000 nM. For `O=C(O)[C@H]1CC[C@@H]1c1nc2c(cnn2C2CCC(F)(F)CC2)c(=O)[nH]1` (racemic) [Example 46], under “at 10 micromolar concentration”, the inhibition at 10 µM came out at 91%. Further, under setting [1], the 50% inhibitory concentration (IC50) was in the range of 1 to 200 nM.

`Cc1ccncc1-n1ncc2c(=O)[nH]c(C3CCC3)nc21` [Example 31]: the inhibition at 10 µM (at 10 micromolar concentration) is 80%. For the same molecule, the IC50 under setting [1] was 201 to 5000 nM. For `O=C([C@H]1CC[C@@H]1c1nc2c(cnn2C2CCC(F)(F)CC2)c(=O)[nH]1)N1CCCCC1` (racemic) [Example 18], in that order: 96% and 1 to 200 nM.

For the molecule `COC1(C)CCN(C(=O)[C@H]2CC[C@@H]2c2nc3c(cnn3C3CCC(F)(F)CC3)c(=O)[nH]2)CC1` (racemic) [Example 13], the inhibition at 10 µM (at 10 micromolar concentration) was found to be 97%. For the same molecule, under setting [1], the IC50 lay in the range of 1 to 200 nM. `Cc1ccccc1-n1ncc2c(=O)[nH]c(C3CCC(O)C(O)C3)nc21` (mixture of isomers) [Example 41]: the IC50 under setting [1] is 201 to 5000 nM.

Consider `CCC(CC)n1ncc2c(=O)[nH]c(C3CCC(C(=O)Nc4cc(OC)cc(OC)c4)CC3)nc21` (mixture of isomers) [Example 44], for which the IC50 under setting [1] fell in the range of 201 to 5000 nM. For `O=C([C@H]1CC[C@@H]1c1nc2c(cnn2C2CCC(F)(F)CC2)c(=O)[nH]1)N1C[C@H]2CCC[C@H]2C1` (racemic) [Example 8], the IC50 was in the range of 1 to 200 nM and the inhibition at 10 µM amounted to 100%.

As to `O=C([C@H]1CC[C@@H]1c1nc2c(cnn2C2CCC(F)(F)CC2)c(=O)[nH]1)N1CCCC(F)(F)C1` (racemic) [Example 14], the inhibition at 10 µM (at 10 micromolar concentration) came out at 100%. Besides, the concentration for half-maximal inhibition (IC50) under setting [1] was 1 to 200 nM. Consider `O=C([C@H]1CC[C@@H]1c1nc2c(cnn2C2CCC(F)(F)CC2)c(=O)[nH]1)N1CCC(F)CC1` (racemic) [Example 11], for which the inhibition at 10 µM (at 10 micromolar concentration) was 94%. For the same molecule, the IC50 under setting [1] lay in the range of 1 to 200 nM. For `Cc1ccncc1-n1ncc2c(=O)[nH]c(C3CC(C)(C)C3)nc21` [Example 35], in that order: 50% and 201 to 5000 nM. For the molecule `O=c1[nH]c([C@@H]2CC[C@H]2Cn2cccn2)nc2c1cnn2C1CCC(F)(F)CC1` (racemic) [Example 47], the inhibition at 10 µM (at 10 micromolar concentration) is 89%. Further, the IC50 under setting [1] was 201 to 5000 nM. For `O=c1[nH]c([C@@H]2CC[C@H]2CO)nc2c1cnn2C1CCC(F)(F)CC1` (racemic) [Example 33], in that order: 83% and 201 to 5000 nM. For `CC1(C)CCN(C(=O)[C@H]2CC[C@@H]2c2nc3c(cnn3C3CCC(F)(F)CC3)c(=O)[nH]2)CC1` (racemic) [Example 10], in that order: 97% and 1 to 200 nM.

Turning to `O=C([C@H]1CC[C@@H]1c1nc2c(cnn2C2CCC(F)(F)CC2)c(=O)[nH]1)N1CCCC1` (racemic) [Example 12], the inhibition at 10 µM (at 10 micromolar concentration) was found to be 99%. The IC50 under setting [1] was in the range of 1 to 200 nM. For `CCN(CC)C(=O)[C@H]1CC[C@@H]1c1nc2c(cnn2C2CCC(F)(F)CC2)c(=O)[nH]1` (racemic) [Example 17], in that order: 99% and 1 to 200 nM. Regarding `O=C([C@H]1CC[C@@H]1c1nc2c(cnn2C2CCC(F)(F)CC2)c(=O)[nH]1)N1CCC2(CC2)C1` (racemic) [Example 5], the inhibition at 10 µM (at 10 micromolar concentration) is 100%. In addition, the IC50 under setting [1] was 1 to 200 nM.

With `O=c1[nH]c(C2CCC2)nc2c1cnn2C1CCCC1` [Example 29], the inhibition at 10 µM (at 10 micromolar concentration) was 98%. Also, the IC50 under setting [1] fell in the range of 1 to 200 nM. For `O=c1[nH]c([C@@H]2CC[C@H]2CN2CC(F)(F)C(F)(F)C2)nc2c1cnn2C1CCC(F)(F)CC1` (racemic) [Example 28], in that order: 94% and 1 to 200 nM.

On to `O=C([C@H]1CC[C@@H]1c1nc2c(cnn2C2CCC(F)(F)CC2)c(=O)[nH]1)N1CCC(F)(F)CC1` (racemic) [Example 9], for which the inhibition at 10 µM (at 10 micromolar concentration) was 100%. Moreover, the IC50 under setting [1] fell in the range of 1 to 200 nM. `Cc1ccccc1-n1ncc2c(=O)[nH]c(C3CC3C)nc21` (mixture of isomers) [Example 37]: the IC50 under setting [1] fell in the range of 1 to 200 nM. Take `CCOC(=O)[C@H]1CC[C@@H]1c1nc2c(cnn2C2CCCC2)c(=O)[nH]1` (racemic) [Example 27]: the inhibition at 10 µM (at 10 micromolar concentration) turned out to be 98%. For the same molecule, under setting [1], the IC50 was in the range of 1 to 200 nM. For `O=C([C@H]1CCCC[C@@H]1c1nc2c(cnn2C2CCC(F)(F)CC2)c(=O)[nH]1)N1CCCC1` (racemic) [Example 21], in that order: 66% and 1 to 200 nM. On to `CCC(CC)n1ncc2c(=O)[nH]c(C3CCCC(C(=O)O)C3)nc21` (single isomer, unassigned) [Example 45], for which, under setting [1], the IC50 lay in the range of 201 to 5000 nM. For `O=C([C@H]1CC[C@@H]1c1nc2c(cnn2C2CCC(F)(F)CC2)c(=O)[nH]1)N1CCC(F)(F)C1` (racemic) [Example 3], the inhibition at 10 µM (at 10 micromolar concentration) came to 100%. The concentration for half-maximal inhibition (IC50) under setting [1] is 1 to 200 nM. Regarding `C#CCNC(=O)C1CCC1c1nc2c(cnn2C2CCC(F)(F)CC2)c(=O)[nH]1` (racemic) [Example 22], under “at 10 micromolar concentration”, the inhibition at 10 µM is 90%. The IC50 under setting [1] lay in the range of 1 to 200 nM.

Turning to `CCOC(=O)C1CCCC(c2nc3c(cnn3C(CC)CC)c(=O)[nH]2)C1` (mixture of isomers) [Example 42], the IC50 under setting [1] fell in the range of 201 to 5000 nM.

The term inhibition denotes the relative decrease from the control value, in per cent. The IC50 is the concentration needed to halve the response being measured.

The values above are taken from US20110212960A1, “NEW COMPOUNDS FOR THE TREATMENT OF CNS DISORDER” (BOEHRINGER INGELHEIM INTERNATIONAL GMBH, priority 2009, published 2011).
